Assays:
[1] = target: T1, chimeric TLR3/CD32a receptor (Homo sapiens, UniProt O15455); experiment: Effect of extracellular pH on calcium mobilization in U937 cells expressing chimeric TLR3/CD32a; assay type: cell-based; conditions: pH range 5.5-7.5
T1 construct: expressed in transfected cells; host or cells: U937 cells, transiently or stably transfected with pTLR3/CD32a (pMET7 vector)
T1 sequence (O15455 with tags, fused parts or gaps): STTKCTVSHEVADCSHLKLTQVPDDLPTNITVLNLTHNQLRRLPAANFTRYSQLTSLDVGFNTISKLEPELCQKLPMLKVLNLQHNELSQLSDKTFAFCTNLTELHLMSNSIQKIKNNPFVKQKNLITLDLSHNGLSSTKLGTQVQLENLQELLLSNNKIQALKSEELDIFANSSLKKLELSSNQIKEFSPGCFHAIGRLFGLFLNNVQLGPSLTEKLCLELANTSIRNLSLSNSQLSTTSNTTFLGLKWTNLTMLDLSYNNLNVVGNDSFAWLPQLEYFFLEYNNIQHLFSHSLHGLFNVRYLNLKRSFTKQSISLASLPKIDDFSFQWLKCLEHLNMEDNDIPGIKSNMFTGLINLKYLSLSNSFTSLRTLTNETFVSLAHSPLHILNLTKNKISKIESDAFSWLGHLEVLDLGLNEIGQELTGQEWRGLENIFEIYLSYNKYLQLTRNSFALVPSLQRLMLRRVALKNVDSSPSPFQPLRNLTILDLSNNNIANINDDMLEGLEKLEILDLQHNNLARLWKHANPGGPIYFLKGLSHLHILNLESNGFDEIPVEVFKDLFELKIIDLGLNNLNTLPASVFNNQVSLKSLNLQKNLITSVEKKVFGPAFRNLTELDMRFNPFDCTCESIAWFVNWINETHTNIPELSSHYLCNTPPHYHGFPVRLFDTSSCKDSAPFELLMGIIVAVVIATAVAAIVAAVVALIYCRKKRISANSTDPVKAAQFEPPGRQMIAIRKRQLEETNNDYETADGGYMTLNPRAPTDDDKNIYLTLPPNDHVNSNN
Description: Wild type TLR3 has previously been described as an intracellular receptor, at least in dendritic cells (DC), and interaction with its ligand occurs in early endosomes. […] U937 cells expressing the chimeric human TLR3/CD32a receptor at the cell surface were used to investigate the effect of the extracellular pH on poly-IC-mediated calcium mobilization.

[2] = tested on: chimeric TLR2/CD32a receptor; experiment: Calcium mobilization in untransfected U937 cells or cells transfected with pTLR2/CD32a (specificity control); assay type: cell-based, human
Sequence of chimeric TLR2/CD32a receptor (as listed by the source, change not shown): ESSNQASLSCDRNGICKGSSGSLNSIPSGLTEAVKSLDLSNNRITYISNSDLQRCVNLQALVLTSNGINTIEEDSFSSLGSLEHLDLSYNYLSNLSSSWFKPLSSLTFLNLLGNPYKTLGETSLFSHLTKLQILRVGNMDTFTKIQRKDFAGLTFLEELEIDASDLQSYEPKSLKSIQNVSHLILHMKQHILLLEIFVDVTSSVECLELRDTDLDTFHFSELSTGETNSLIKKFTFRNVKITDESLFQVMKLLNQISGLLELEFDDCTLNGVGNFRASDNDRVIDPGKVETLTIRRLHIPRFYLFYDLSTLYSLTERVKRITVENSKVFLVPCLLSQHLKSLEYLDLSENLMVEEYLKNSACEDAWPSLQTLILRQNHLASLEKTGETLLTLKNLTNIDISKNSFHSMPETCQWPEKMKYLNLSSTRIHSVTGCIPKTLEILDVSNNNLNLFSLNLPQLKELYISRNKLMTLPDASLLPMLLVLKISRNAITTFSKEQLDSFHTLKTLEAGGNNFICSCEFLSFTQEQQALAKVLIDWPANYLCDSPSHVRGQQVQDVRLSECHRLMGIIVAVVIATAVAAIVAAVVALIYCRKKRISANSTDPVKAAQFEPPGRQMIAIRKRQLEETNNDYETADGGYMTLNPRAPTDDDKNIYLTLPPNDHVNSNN
Description: (§1) The hematopoietic cell line U937 was used for further biological investigation because of the ability of this cell line to display calcium mobilization upon cross-linking of endogenous CD32a using anti-CD32a antibodies followed by secondary antibody (as detected by fluorimetry following loading of the cells with Indo-1 or Fluo-4). Thus, U937 cells express all of the cellular components required for calcium mobilization mediated through CD32a activation.
(§2) Transient transfection of the pTLR3/CD32a and pTLR2/CD32a expression vectors into U937 allowed high level cell surface expression of the chimeric molecule as detected with anti-TLR3 or anti-TLR2 antibodies, while no expression was observed on untransfected cells or cells transfected with the other chimeric vector.

[3] = target: T1, chimeric TLR3/CD32a receptor; experiment: Calcium mobilization in U937 cells transiently transfected with pTLR3/CD32a; assay type: cell-based
Description: as §1, §2
Poly-IC, a synthetic double-stranded RNA ligand for TLR3, was then tested for its ability to stimulate the chimeric TLR3/CD32a receptor. Poly(I) (15, 30 and 40 mers) and poly(C) (15, 30 and 40 mers) (Ambion, Huntingdon, Cambridgeshire, U.K. and Invitrogen, Cergy Pontoise, France respectively) were annealed in equal proportions according to their size for 15 minutes at 95° C. Independently, fragmentation of high molecular weight poly-IC (>5000 bp) was performed by metal-induced hydrolysis as recommended by Affymetrix (High Wycombe, UK). Briefly, 200 μg poly-IC was incubated with 40 μl of 5×RNA fragmentation buffer (200 mM Tris-acetate, pH 8.1, 500 mM KOAc, 150 mM MgOAc) in a final volume of 200 μl, for 35 min at […]. Fragmented poly-IC (100-200 bp) was then allowed to reach room temperature before purification. The relative sizes of dsRNA fragments were examined by electrophoresis in 2% agarose gel.

PBMC = experiment: Cytokine induction in PBMC; assay type: cell-based
[4] = tested on: chimeric TLR3/CD32a receptor lacking two N-glycosylation sites (N196 and N247); experiment: NFκB luciferase reporter in HEK 293 cells co-transfected with chimeric TLR3/CD32a lacking two N-glycosylation sites; assay type: cell-based, human
Description: In order to determine the role of glycosylation in ligand recognition by TLR3, a chimeric TLR3/CD32a receptor lacking two N-glycosylation sites (N196 and N247 as numbered at Genbank Acc. No. NP_003256) was generated by site-directed mutagenesis and co-transfected into HEK 293 cells with a reporter plasmid containing concensus NFκB sites which, when activated, directs the expression of firefly luciferase.

[5] = target: T1, chimeric TLR3/CD32a receptor; experiment: Calcium mobilization in U937 clones stably transfected with pTLR3/CD32a; assay type: cell-based
Description: U937 cells were stably transfected with pTLR3/CD32a using co-transfection with an antibiotic-encoding plasmid and antibiotic selection followed by limiting dilution cloning. Clones were selected based on their cell surface expression level of TLR3. […] These clones expand very easily (up to 10^9 cells) and can be maintained for several months in culture without losing the expression of the chimeric receptor. […] Such stable clones provide a useful method for high through-put screening of candidate agents for the identification of TLR agonists and antagonists.

- pH required for optimal response (calcium mobilization) [1]: 6.5
- pH that prevented biological response (calcium mobilization) [1]: ≥ 7.2
- dose required to detect biological response (calcium mobilization) ([3]; dose response, transiently transfected U937): 0.025 μg/ml
- sensitivity in dose response (calcium mobilization) ([5]; stable U937 clones): 10 to 30 ng/mL
- calcium mobilization ([5]; stable U937 clones with cell surface expression of the chimeric receptor): robust calcium mobilization
Substance: poly-IC
- calcium mobilization [2]: no calcium mobilization
- calcium mobilization ([3]; U937 transiently transfected with pTLR3/CD32a, fluorimetry with Indo-1 or Fluo-4): immediate calcium mobilization of similar intensity to that induced by anti-TLR antibodies
- response to a second stimulation after sequential stimulation ([3]; optimal concentration, second stimulation with poly-IC or anti-TLR3-mediated cross-linking): desensitization
- dose required to detect cytokine induction (PBMC): 2.5 µg/mL
- activity on mutant TLR3 (NFκB luciferase reporter) [4]: completely inactive

— patent publication US7700728B2, “Use of chimeric receptors in a screening assay for identifying agonists and antagonists of cell receptors” (Schering Corporation, priority 2005, dated 2010)
